Columns and labels:
[1] = system: Zucker obese rats; assay: Chronic infusion of OA-NO2 or OA in Zucker obese rats (obesity, hyperlipidemia, kidney injury); type: in vivo, rat; settings: 7.5 μg/kg/day via osmotic mini-pump; for reduction of proteinuria (urinary protein excretion): 24-hour urine (FIG. 7); for plasma free fatty acid levels (non-esterified fatty acid): fasted (FIG. 3B); for plasma cholesterol levels: fasted (FIG. 4); for plasma HDL levels: fasted (FIG. 5A); for body weight gain: male 4-mo-old Zucker obese rats, vs. vehicle control (FIG. 1)
Procedure: Male 4-month-old Zucker obese and Zucker diabetic rats were from Charles River Laboratory (Wilmington, Mass.). All animals were housed in an air-conditioned room with a 12-hour light/dark cycle. All procedures and protocols were in accordance with guidelines set by the Laboratory Animal Care Committee at the University of Utah. Two strains of Zucker rats, obese and diabetes (ZDF) (Charles River), were treated with vehicle (ethanol), OA-NO2 at 7.5 μg/kg/d, or OA at 7.5 μg/kg/d via an osmotic mini-pump. Under isoflurane anesthesia, the mini-pump was implanted under the skin of the neck area. Body weight, food intake, and collections of blood and urine samples were determined before and after treatment. Animals were fasted from 6:00 pm to 9:00 am before blood sampling. Blood sampling was conducted by making a small cut (˜2 mm) in the tail using razor blade. 24-hour urine was collected using metabolic cages. Adult Zucker obese rats develop severe obesity and hyperlipidemia but are relatively resistant to diabetes. Therefore, these animals were used for testing the weight-loss and lipid lowering effects of OA-NO2. To determine whether these effects are directly attributable to the nitration of the fatty acid, the parent fatty acid (OA) was used as a control. Starting from 4 mo of age, Zucker obese rats were chronically infused for 2 weeks with vehicle, OA-NO2 (9-nitrooleic acid and 10-nitrooleic acid are purchased from Cayman Chemical, Ann Arbor, MI and used as an 1:1 mixture), or OA each at 7.5 μg/kg/day via an osmotic mini-pump. Parameters including body weight, food intake, the lipid profile, oxidative stress, and urinary protein excretion were determined. Animals were fasted from 6:00 pm to 9:00 am before blood sampling.

[2] = system: Zucker diabetic rats; assay: Chronic infusion of OA-NO2 in Zucker diabetic rats (ZDF strain); type: in vivo, rat; settings: 7.5 μg/kg/d via osmotic mini-pumps, 1 week, fasted
Procedure: Male 4-month-old Zucker obese and Zucker diabetic rats were from Charles River Laboratory (Wilmington, Mass.). All animals were housed in an air-conditioned room with a 12-hour light/dark cycle. All procedures and protocols were in accordance with guidelines set by the Laboratory Animal Care Committee at the University of Utah.
Two strains of Zucker rats, obese and diabetes (ZDF) (Charles River), were treated with vehicle (ethanol), OA-NO2 at 7.5 μg/kg/d, or OA at 7.5 μg/kg/d via an osmotic mini-pump. Under isoflurane anesthesia, the mini-pump was implanted under the skin of the neck area. Body weight, food intake, and collections of blood and urine samples were determined before and after treatment. Animals were fasted from 6:00 pm to 9:00 am before blood sampling. Blood sampling was conducted by making a small cut (˜2 mm) in the tail using razor blade. 24-hour urine was collected using metabolic cages.
To evaluate the efficacy of OA-NO2 for treatment of diabetes, Zucker diabetic rats were used. These animals develop severe hyperglycemia and hyperinsulinemia, the two major parameters of type 2 diabetes.

Row | Molecule | plasma TBARS (index of systemic oxidative stress), increase in obese vs. lean rats ([1]; Zucker obese rats, 2 weeks (FIG. 6)) | reduction of proteinuria (urinary protein excretion) ([1]; Zucker obese rats, 2 weeks) | plasma free fatty acid levels (non-esterified fatty acid) ([1]; Zucker obese rats, 2 weeks) | plasma cholesterol levels ([1]; Zucker obese rats, 2 weeks) | plasma HDL levels ([1]; Zucker obese rats, 2 weeks) | plasma triglyceride ([1]; Zucker obese rats, 2 weeks, fasted, vs. vehicle control (FIG. 3A)) | food intake ([1]; Zucker obese rats, 2 weeks, vs. vehicle (FIG. 2)) | body weight gain ([1]; 2 weeks) | hyperglycemia (plasma glucose) ([2]; vs. Day 0 (FIG. 8A)) | plasma insulin levels ([2]; vs. Day 0 (FIG. 8B))
1 | nitrooleic acid [OA-NO2] | significantly attenuated | 50% | almost completely normalized | unaffected | significantly increased | significant triglyceride-lowering effect | significantly reduced | less than that in the vehicle control | significantly attenuated | tended to reduce
2 | CCCCCCCC/C=C\CCCCCCCC(=O)O [OA, Oleic acid, reference compound] |  | no significant effect | lack of an effect | unaffected | ineffective |  |  | not different |  | 

— US20160151318A1, “USE OF NITRATED LIPIDS FOR TREATMENT OF LIPID DISORDERS AND OBESITY, AND LIPID- AND OBESITY-RELATED CONDITIONS” (THE UNIVERSITY OF UTAH RESEARCH FOUNDATION, priority 2008, published 2016)
